Values of other authors in PMC10268011 (ACS Omega, 2023).

## COc1ccc(COc2ccc(Cc3cnc(N)nc3N)cc2OC)cc1 [GW2580, 5-(3-Methoxy-4-((4-Methoxybenzyl)Oxy)Benzyl)Pyrimidine-2,4-Diamine]
  systemic bioavailability: high systemic bioavailability
